The results in this text go back to patent US9730940B2, “Purine inhibitors of human phosphatidylinositol 3-kinase delta” (priority 2012, dated 2017).

Where only a bound is given, the exact number is not on record here.

For the test, the target named is PI3K-alpha (Homo sapiens (Human), UniProt P42336). The experiment in a line: HTRF PI3K biochemical assay, alpha isoform. The following applies: ratio PI3K-alpha IC50 value/PI3K-delta IC50 value. Background: Time-resolved FRET reads energy transfer from a long-lived donor to a nearby acceptor.
Chain of PI3K-alpha (P42336 whole entry, looked up, canonical isoform): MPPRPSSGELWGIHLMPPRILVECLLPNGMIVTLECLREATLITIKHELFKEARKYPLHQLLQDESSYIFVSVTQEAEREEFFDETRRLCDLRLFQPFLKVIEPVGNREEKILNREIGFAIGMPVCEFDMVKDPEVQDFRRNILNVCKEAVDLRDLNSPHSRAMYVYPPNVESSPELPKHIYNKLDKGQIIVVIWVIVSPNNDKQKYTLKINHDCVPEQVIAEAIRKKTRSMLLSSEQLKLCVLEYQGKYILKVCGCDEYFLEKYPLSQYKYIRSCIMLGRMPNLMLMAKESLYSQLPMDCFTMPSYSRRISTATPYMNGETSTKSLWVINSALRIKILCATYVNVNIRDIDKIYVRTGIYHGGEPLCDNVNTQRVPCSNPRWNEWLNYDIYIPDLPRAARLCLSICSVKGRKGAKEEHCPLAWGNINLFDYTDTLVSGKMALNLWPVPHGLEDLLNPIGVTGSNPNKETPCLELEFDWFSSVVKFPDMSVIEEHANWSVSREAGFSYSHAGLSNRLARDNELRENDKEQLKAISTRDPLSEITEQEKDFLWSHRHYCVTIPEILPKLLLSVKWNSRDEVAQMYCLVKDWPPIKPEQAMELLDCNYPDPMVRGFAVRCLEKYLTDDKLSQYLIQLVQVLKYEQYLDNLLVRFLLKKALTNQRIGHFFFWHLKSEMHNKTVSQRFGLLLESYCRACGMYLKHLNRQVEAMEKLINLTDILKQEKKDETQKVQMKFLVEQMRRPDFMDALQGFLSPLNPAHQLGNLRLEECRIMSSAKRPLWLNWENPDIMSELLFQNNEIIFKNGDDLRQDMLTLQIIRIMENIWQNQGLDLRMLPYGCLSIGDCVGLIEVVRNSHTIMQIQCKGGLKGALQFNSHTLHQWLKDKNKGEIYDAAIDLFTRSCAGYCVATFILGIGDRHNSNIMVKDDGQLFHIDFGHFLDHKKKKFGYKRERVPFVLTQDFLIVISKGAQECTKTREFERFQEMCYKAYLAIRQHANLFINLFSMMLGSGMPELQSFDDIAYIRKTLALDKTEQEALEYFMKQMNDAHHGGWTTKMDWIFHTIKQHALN
Chain of PI3K-alpha (P27986 whole entry partner, looked up, canonical isoform): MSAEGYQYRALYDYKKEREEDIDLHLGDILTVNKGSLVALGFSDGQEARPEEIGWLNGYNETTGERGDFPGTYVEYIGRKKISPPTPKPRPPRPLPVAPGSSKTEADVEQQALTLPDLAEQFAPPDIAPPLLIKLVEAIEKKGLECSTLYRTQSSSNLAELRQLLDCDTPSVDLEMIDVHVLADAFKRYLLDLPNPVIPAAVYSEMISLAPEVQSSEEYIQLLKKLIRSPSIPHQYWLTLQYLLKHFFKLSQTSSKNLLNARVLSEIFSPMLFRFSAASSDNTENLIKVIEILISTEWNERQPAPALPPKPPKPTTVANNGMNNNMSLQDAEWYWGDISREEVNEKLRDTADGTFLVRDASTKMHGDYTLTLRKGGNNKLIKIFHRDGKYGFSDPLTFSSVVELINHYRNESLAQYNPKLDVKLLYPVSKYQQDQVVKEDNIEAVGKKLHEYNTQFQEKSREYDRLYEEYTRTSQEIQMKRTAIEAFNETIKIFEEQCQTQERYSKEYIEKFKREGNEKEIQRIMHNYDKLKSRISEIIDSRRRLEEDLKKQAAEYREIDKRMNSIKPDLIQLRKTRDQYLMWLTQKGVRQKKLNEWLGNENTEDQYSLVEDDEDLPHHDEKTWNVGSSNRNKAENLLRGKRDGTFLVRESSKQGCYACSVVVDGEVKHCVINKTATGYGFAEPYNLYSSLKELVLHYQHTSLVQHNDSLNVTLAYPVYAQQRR
In the case of `CCn1ncc(-c2nc3c(O[C@@H]4CCN(C(=O)C5CCOCC5)C4)ncnc3n2C)c1C` [Compound 2-9, (R)-(3-((8-(1-ethyl-5-methyl-1H-pyrazol-4-yl)-9-methyl-9H-purin-6-yl)oxy)pyrrolidin-1-yl)(tetrahydro-2H-pyran-4-yl)methanone], the “Relative Selectivity versus PI3Kalpha” value was found to be 3. Regarding `CCn1c(-c2cnc(C)nc2)nc2c(O[C@H]3CCN(C(=O)OC(C)(C)C)C3)ncnc21` [Compound 1-3, (S)-tert-butyl 3-(9-ethyl-8-(2-methylpyrimidin-5-yl)-9H-purin-6-yloxy)pyrrolidine-1-carboxylate], the “Relative Selectivity versus PI3Kalpha” value was over 10.

`Cc1ncc(-c2nc3c(O[C@H]4CCN(C(=O)OC(C)(C)C)C4)ncnc3n2C)n1C` [Compound 1-17, tert-butyl (3S)-3-{[8-(1,2-dimethyl-1H-imidazol-5-yl)-9-methyl-9H-purin-6-yl]oxy}pyrrolidine-1-carboxylate]: the “Relative Selectivity versus PI3Kalpha” value is recorded as over 10. On to `CCn1c(-c2ccc(OC(F)F)nc2)nc2c(O[C@H]3CCN(C(=O)C4CC4)C3)ncnc21` [Compound 2-147, 6-{[(3S)-1-(cyclopropylcarbonyl)pyrrolidin-3-yl]oxy}-8-[6-(difluoromethoxy)pyridin-3-yl]-9-ethyl-9H-purine], for which the “Relative Selectivity versus PI3Kalpha” value is listed as over 10. The same measure for `CCn1ncc(-c2nc3c(O[C@H]4CCN(c5nccn6cnnc56)C4)ncnc3n2C)c1C` [Compound 7-6, 8-[(3S)-3-{[8-(1-ethyl-5-methyl-1H-pyrazol-4-yl)-9-methyl-9H-purin-6-yl]oxy}pyrrolidin-1-yl][1,2,4]triazolo[4,3-a]pyrazine]: over 10.

With `CCn1ncc(-c2nc3c(O[C@H]4CCN(c5cc(C(F)(F)F)ccn5)C4)ncnc3n2C)c1C` [Compound 7-5, 8-(1-ethyl-5-methyl-1H-pyrazol-4-yl)-9-methyl-6-({(3S)-1-[4-(trifluoromethyl)pyridin-2-yl]pyrrolidin-3-yl}oxy)-9H-purine], the “Relative Selectivity versus PI3Kalpha” value is reported as over 10. The same measure for `CCn1ncc(-c2nc3c(S[C@H]4CCN(C(=O)OC(C)(C)C)C4)ncnc3n2C)c1C` [Compound 10-1, (S)-tert-butyl 3-((8-(1-ethyl-5-methyl-1H-pyrazol-4-yl)-9-methyl-9H-purin-6-yl)thio)pyrrolidine-1-carboxylate]: over 10; for `CCC(=O)N1CC[C@H](Oc2ncnc3c2nc(CC(C)C)n3C)C1` [Compound 14-4, 9-methyl-8-(2-methylpropyl)-6-{[(3S)-1-propanoylpyrrolidin-3-yl]oxy}-9H-purine]: over 10. As to `CCn1ncc(-c2nc3c(O[C@H]4CCN(C(=O)OCC(C)(C)C)C4)ncnc3n2C)c1C` [Compound 1-9, 2,2-dimethylpropyl (3S)-3-{[8-(1-ethyl-5-methyl-1H-pyrazol-4-yl)-9-methyl-9H-purin-6-yl]oxy}pyrrolidine-1-carboxylate], the “Relative Selectivity versus PI3Kalpha” value is over 10. Turning to `CCn1c(-c2cnc(C)nc2)nc2c(OC3CN(Cc4ccccc4)CC3(C)C)ncnc21` (stereo not shown) [Compound 6-6, 6-((1-benzyl-4,4-dimethylpyrrolidin-3-yl)oxy)-9-ethyl-8-(2-methylpyrimidin-5-yl)-9H-purine], the “Relative Selectivity versus PI3Kalpha” value was over 10. With `CCC(=O)N1CC[C@H](Oc2ncnc3c2nc(-c2cnn4c2CCC4)n3C)C1` [Compound 3-22, 8-(5,6-dihydro-4H-pyrrolo[1,2-b]pyrazol-3-yl)-9-methyl-6-{[(3S)-1-propanoylpyrrolidin-3-yl]oxy}-9H-purine], the “Relative Selectivity versus PI3Kalpha” value was over 10. Consider `CCn1ncc(-c2nc3c(O[C@H]4CCN(C(=O)c5nnc6n5CCCC6)C4)ncnc3n2C)c1C` [Compound 2-42, 8-(1-ethyl-5-methyl-1H-pyrazol-4-yl)-9-methyl-6-{[(3S)-1-(5,6,7,8-tetrahydro[1,2,4]triazolo[4,3-a]pyridin-3-ylcarbonyl)pyrrolidin-3-yl]oxy}-9H-purine], for which the “Relative Selectivity versus PI3Kalpha” value came out at 3. Turning to `CCn1c(-c2cnc(OC)c(C(F)(F)F)c2)nc2c(O[C@H]3CCN(C(=O)C4CC4)C3)ncnc21` [Compound 3-26, 5-{[(3S)-1-(cyclopropylcarbonyl)pyrrolidin-3-yl]oxy}-9-ethyl-8-[6-methoxy-5-(trifluoromethyl)pyridin-3-yl]-9H-purine], the “Relative Selectivity versus PI3Kalpha” value is recorded as over 10. In the case of `CCn1c(C(=O)NCC2CC2)nc2c(O[C@H]3CCN(C(=O)OC(C)(C)C)C3)ncnc21` [Compound 15-3, tert-butyl (3S)-3-({8-[(cyclopropylmethyl)carbamoyl]-9-ethyl-9H-purin-6-yl}oxy)pyrrolidine-1-carboxylate], the “Relative Selectivity versus PI3Kalpha” value is reported as over 10. `CCn1c(-c2cnc(C)nc2)nc2c(OC3CN(C(=O)C4CC4)CC3O)ncnc21` (single isomer, unassigned) [Compound 2-100, [(3R,4R) or (3S,4S)]-trans-1-(cyclopropylcarbonyl)-4-{[9-ethyl-8-(2-methylpyrimidin-5-yl)-9H-purin-6-yl]oxy}pyrrolidin-3-ol]: the “Relative Selectivity versus PI3Kalpha” value is over 10. Regarding `CCCn1c(-c2cnn(CC)c2C)nc2c(O[C@H]3CCN(C(=O)CC)C3)ncnc21` [Compound 3-18, 8-(1-ethyl-5-methyl-1H-pyrazol-4-yl)-6-{[(3S)-1-propanoylpyrrolidin-3-yl]oxy}-9-propyl-9H-purine], the “Relative Selectivity versus PI3Kalpha” value is given as over 10. The same measure for `CCn1c(-c2ccc(OC(F)F)nc2)nc2c(O[C@H]3CCN(C(=O)OC(C)(C)C)C3)ncnc21` [Compound 1-51, tert-butyl (3S)-3-({8-[6-(difluoromethoxy)pyridin-3-yl]-9-ethyl-9H-purin-6-yl}oxy)pyrrolidine-1-carboxylate]: over 10; for `CCn1c(-c2cnc(C)nc2)nc2c(O[C@H]3CCN(C(=O)C4CC4CO)C3)ncnc21` (single isomer, unassigned) [Compound 2-130, (1S,2S)- or (1R,2R)-{[(3S)-3-{[9-ethyl-8-(2-methylpyrimidin-5-yl)-9H-purin-6-yl]oxy}pyrrolidin-1-yl]carbonyl}cyclopropyl)methanol]: over 10. Turning to `CCn1c(-c2cnc(C)nc2)nc2c(OC3CN(C(=O)C4CC4)CC34CC4)ncnc21` (stereo not shown) [Compound 3-64, (R— or S—)-6-{[5-(cyclopropylcarbonyl)-5-azaspiro[2.4]hept-7-yl]oxy}-9-ethyl-8-(2-methylpyrimidin-5-yl)-9H-purine], the “Relative Selectivity versus PI3Kalpha” value is recorded as over 10. In the case of `CCC(=O)N1CC[C@H](Oc2ncnc3c2nc(C(F)(F)F)n3CC)C1` [Compound 14-6, 9-ethyl-6-{[(3S)-1-propanoylpyrrolidin-3-yl]oxy}-8-(trifluoromethyl)-9H-purine], the “Relative Selectivity versus PI3Kalpha” value is reported as over 10. As to `CCn1c(-c2cnc(C)nc2)nc2c(O[C@H]3CCN(C(=O)C4CC4F)C3)ncnc21` (single isomer, unassigned) [Compound 2-135, 9-ethyl-6-({(3S)-1-[((1R,2R)- or (1S,2S)-2-fluorocyclopropyl)carbonyl]pyrrolidin-3-yl}oxy)-8-(2-methylpyrimidin-5-yl)-9H-purine], the “Relative Selectivity versus PI3Kalpha” value was over 10. Turning to `CCC(=O)N1CC[C@H](Sc2ncnc3c2nc(-c2cnn(CC)c2C)n3C)C1` [Compound 10-4, (S)-1-(3-((8-(1-ethyl-5-methyl-1H-pyrazol-4-yl)-9-methyl-9H-purin-6-yl)thio)pyrrolidin-1-yl)propan-1-one], the “Relative Selectivity versus PI3Kalpha” value is recorded as over 10.
